In patent publication US8097615B2, “Neurofibrillary labels” (Wista Laboratories Ltd., priority 2001, dated 2012):
Values belong to the compound of their own block, whether it stands above or below them.

Assays:
[1] = molecular target: T1, synthetic beta-amyloid fibrils (Homo sapiens, UniProt P05067); conditions: in vitro; cited from earlier work
T1 construct: host or cells: synthetic peptide

[2] = PET after injection; cases with clinical and neuroradiological diagnosis of Alzheimer's disease; cited from earlier work
[3] = tested on: PHFs; assay: Morphological studies of PHFs in the presence of phenothiazines (electron microscopy)
[4] = molecular target: T2, tau-tau binding (Homo sapiens, UniProt P10636); assay: Relief of DMMB inhibition of tau-tau binding by ligands (Preparation 2); format: biochemical
T2 construct: a truncated tau protein corresponding to the core fragment and terminating at Ala390-dGA; dGAE which terminates at Glu-391; made in house; host or cells: E. coli BL21 (DE3), pRK172; DE52 flow-through, P11 phosphocellulose, PEG concentration, no heat step (Preparation 2)
T2 sequence (P10636 614-708 limits assumed): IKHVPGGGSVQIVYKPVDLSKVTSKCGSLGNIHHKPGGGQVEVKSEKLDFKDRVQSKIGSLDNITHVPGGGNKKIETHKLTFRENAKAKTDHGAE
Text: 2. using tau proteins prepared in this manner for testing putative ligands in the tau-tau binding assay provided in WO96/30766 to identify substances which have minimal or entirely absent activity as tau-aggregation inhibitors or enhance tau-tau binding at high concentrations; 3. testing putative ligands in the presence of an exemplary potent tau-aggregation inhibitor, such as DMMB, at an inhibitory concentration; 4. putative ligands can be identified by the property that they lack capacity to block tau-tau binding through the repeat domain, but block the inhibitory activity of a potent tau-aggregation inhibitor.
(ii) contacting (a) a tau protein or a derivative thereof containing the tau core fragment bound to a solid phase so as to expose a high affinity tau capture site (e.g. a truncated tau protein corresponding to the core fragment and terminating at Ala390-dGA), with (b) a liquid phase tau protein or derivative thereof capable of binding to the solid phase tau protein or derivative (e.g. dGAE which terminates at Glu-391), and (c) said selected first agent and (d) a second agent known to be tau-tau binding inhibitor, (iii) selecting a first agent which fully or partially relieves the inhibition of binding of the liquid phase tau protein or derivative of (b) to the solid phase tau protein or derivative of (a) by the inhibitor (d).
Similar results are shown for 15 μM DMMB in the presence of increasing concentrations of Primulin (c) and Thiazin Red (d).
For each graph, Tau-Tau binding is shown in the presence of constant concentrations of DMMB co-incubated with Primulin at 0×, 1×, 5×, 10×, 100× the DMMB concentrations shown.
This implies that the Tau-aggregation enhancement effect of these ligands is proportional to the fraction of ligand-binding sites occupied, presumably within the Tau aggregates introduced into the aqueous-phase of the assay. The mean Bmax for both ligands is ˜1.6. That is, the maximum ligand effect is to produce 1.6-fold the Tau-Tau binding signal seen in the absence of any drug. The mean Kd for this effect is ˜15×. That is, for any given concentration of DMMB>4 μM, 50% of maximal enhancement of Tau-Tau binding can be seen when the ligand molar excess is 15-fold relative to the concentration of DMMB.

[5] = tested on: tangle fragments; assay: Competitive binding assay: displacement of primulin fluorescence from tangle fragments (ifI); set-up: species or system human; conditions: fluorescence end point
Description: IfI material was homogenised in a 0.2 ml glass homogeniser in PBS. To the suspension, test compounds were added to final concentrations ranging from 0.1% to 0.00001%. […] The suspensions were transferred to a glass slide, and examined by fluorescence microscopy across a range of fluorescence filter blocks, covering excitation and emission wavelengths between 380 nm and 570 nm. The end point sought in these observations was displacement of typical primulin fluorescence from tangle fragments.

[6] = tested on: tau-tau binding; assay: Solid-phase tau-tau binding assay, tau Preparation 1 (WO96/30766); format: biochemical, human
Text: This point was further examined by studying the potency of typical aggregated tau ligands as tau-aggregation inhibitors. It has been shown previously that tau aggregation inhibitors (e.g. diaminophenothiazines) can be identified on the basis of inhibition of tau-tau binding in a solid-phase assay (WO 96/30766). […] Thus, although these compounds are potent ligands for tau within the PHF-core, they are at most weak inhibitors at the site required for inhibition of tau-tau binding.
Large-scale purification (1 liter bacterial culture) of tau fragments was carried out as described by Goedert and Jakes (1990, EMBO J., 9, 4225-4230), with minor modifications. Cells were disrupted by rapid freezing of the cell pellet in liquid nitrogen. The pellets were then suspended in buffer containing 50 mM PIPES, 1 mM dithiothreitol (DTT) (pH 6.8). The thermostable proteins in the supernatant were dialysed against PIPES/DTT, then applied to a column containing phosphocellulose equilibrated in the same buffer. […] Fractions were analysed by SDS-PAGE and both Coomassie staining and immunoblotting. […] Protein concentrations were measured by the Lowry method (Harrington C R (1990), “Lowry protein assay containing sodium dodecyl sulphate in microtitre plates for protein determinations on fractions from brain tissue”, Analytical Biochemistry 186: 285-287).

[7] = molecular target: T2, tau-tau binding; assay: Solid-phase tau-tau binding assay (dGA solid phase, dGAE liquid phase), tau Preparation 2; format: biochemical; conditions: Preparation 2
Description: Preparation 2 differs from Preparation 1 above in the following respects: (1) The concentration of cells at the sonication stage is increased by 5-fold. (2) A batchwise adsorption of non-tau proteins to DE52 is included. (3) The proteins are not subjected to heat treatment. (4) The final step involves concentration using polyethylene glycol.
Escherichia coli is grown in 2×TY medium (Oxoid) supplemented with ampicillin (50 micrograms per ml) to late-logarithmic phase. Cells from 5 liters of culture are harvested by centrifugation and the cell pellets frozen rapidly over liquid nitrogen. The pellets are taken up with 50 mM PIPES (pH 6.8) containing 1 mM EDTA, 1 mM dithiothreitol and 1 mM phenylmethylsulphonylfluoride (PMSF) and bacteria lysed by sonication (2×3 min) at 4 C. The mixture is centrifuged at 10,000 rpm for 20 min. The supernatant is rotated with 1 gram of Whatman DE52 for 3 hr at 4 C. The mixture is separated on a column and the flow-through material that fails to bind to DE52 is incubated for 3 hr at 4 C, with rotation, with 0.4 g of Whatman P11 (freshly regenerated according to manufacturer's recommendations). The column is washed with column buffer (50 mM PIPES, pH 6.8 containing 1 mM EGTA, 5 mM EDTA, 0.2 mM MgCl2, 5 mM β-mercaptoethanol and 1 mM PMSF). Tau protein is eluted stepwise with a 0.1 to 1 M gradient of KCl in column buffer. Fractions containing tau (determined by immunoassay) are pooled and dialysed against 80 mM PIPES (pH6.8) containing 1 mM EGTA, 1 mM MgCl2 and 5 mM β-mercatoethanol, using dialysis tubing with a molecular weight cut-off of 1,000. The dialysate is concentrated by applying polyethylene glycol 8000 to the outside of the sac for 2-3 hr. The final concentration of tau ranged from 3 to 10 mg per ml.
When the proteins dGA and dGAE were prepared as indicated above (“Preparation 2”), the properties of the tau-tau binding assay were altered relative to the properties obtained using the preparative method described in WO96/30766 (“Preparation 1”).
The assay is performed using 96 well PVC plates (Falcon Cat. No. 353912 are used), and the following steps:
1. 50 μl dGA (˜10 μg/ml) in carbonate buffer, incubate 1 h at 37° C.
(Carbonate buffer: 50 mM carbonate bicarbonate, pH 9.6 (Na2CO3 1.59 g/l, NaHCO3 2.93 g/l))
2. Wash plate in 0.05% Tween-20.
3. 200 μl PBS+2% Marvel, incubate 1 h at 37° C.
4. Rinse plate 2× in deionised water, then wash in 0.05% Tween-20.
5. 50 μl dGAE (˜10 μg/ml) plus drug in PBS+1% fish skin gelatin+0.05% Tween-20, incubate 1 h at 37° C.
6. Wash plate in 0.05% Tween-20.
7. 50 μl antibody 423 (1:10 dilution in PBS+2% Marvel), incubate 1 h at 37° C.
8. Rinse plate 2× in deionised water, then wash in 0.05% Tween-20.
9. 50 μl HRP-anti-mouse (1:1000 dilution in PBS+0.05% Tween-20), incubate 1 h at 37° C.
10. Wash plate in 0.05% Tween-20, then rinse 1× with deionised water.
11. 50 μl substrate solution, read immediately initial rate over 2 min in plate reader at OD650.
(Substrate solution: 50 mM sodium acetate, pH 5.0+TMB (1 ml/100 ml of a 10 mg/ml solution in DMSO)+H2O2 (10 μl/100 ml)).

T1 sequence (P05067 672-711 limits assumed): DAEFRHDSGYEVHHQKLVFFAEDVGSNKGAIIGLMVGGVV

Compound: CC(=C(C#N)C#N)c1ccc2cc(N(C)CC[18F])ccc2c1 [FDDNP, 2-(1-{6-[(2-[^18F]fluoroethyl)(methyl)amino]-2-naphthyl}ethylidene)malononitrile]
binding to synthetic beta-amyloid fibrils [1]: bind with high affinity
relative retention time (RRT) [2]: increased relative retention time

Compound: CN(C)c1ccc2nc3ccc(=[N+](C)C)cc-3sc2c1 [methylene blue]
disruption of PHF structure [3]: disruption of PHF structure in the presence of sufficiently high concentrations

BMax of tau-tau binding ([4]; 5 μM DMMB, Binding=(BMax×[ligand])/(Kd+[ligand])): 1.64
reversal of inhibitory effect of DMMB on tau-tau binding ([4]; co-incubation with increasing molar excess of ligand): completely reversed
inhibition of tau-tau binding [6]: weak inhibitors of tau-tau binding
inhibition of tau-tau binding [7]: no inhibitory activity
Compound: Cc1ccc2sc(-c3ccc(N=Nc4cc(S(=O)(=O)[O-])c5ccccc5c4O)cc3)nc2c1S(=O)(=O)[O-].[Na+].[Na+] [thiazin red]
competition with / displacement of other ligands at tangles [5]: compete with primulin at equivalent concentrations
